Data set [1] concerns the target T1, ABCG2 (Homo sapiens, UniProt Q9UNQ0).
T1 construct: ABCG2 in insect cell membrane vesicles (total membranes)
T1 sequence (Q9UNQ0 1-655): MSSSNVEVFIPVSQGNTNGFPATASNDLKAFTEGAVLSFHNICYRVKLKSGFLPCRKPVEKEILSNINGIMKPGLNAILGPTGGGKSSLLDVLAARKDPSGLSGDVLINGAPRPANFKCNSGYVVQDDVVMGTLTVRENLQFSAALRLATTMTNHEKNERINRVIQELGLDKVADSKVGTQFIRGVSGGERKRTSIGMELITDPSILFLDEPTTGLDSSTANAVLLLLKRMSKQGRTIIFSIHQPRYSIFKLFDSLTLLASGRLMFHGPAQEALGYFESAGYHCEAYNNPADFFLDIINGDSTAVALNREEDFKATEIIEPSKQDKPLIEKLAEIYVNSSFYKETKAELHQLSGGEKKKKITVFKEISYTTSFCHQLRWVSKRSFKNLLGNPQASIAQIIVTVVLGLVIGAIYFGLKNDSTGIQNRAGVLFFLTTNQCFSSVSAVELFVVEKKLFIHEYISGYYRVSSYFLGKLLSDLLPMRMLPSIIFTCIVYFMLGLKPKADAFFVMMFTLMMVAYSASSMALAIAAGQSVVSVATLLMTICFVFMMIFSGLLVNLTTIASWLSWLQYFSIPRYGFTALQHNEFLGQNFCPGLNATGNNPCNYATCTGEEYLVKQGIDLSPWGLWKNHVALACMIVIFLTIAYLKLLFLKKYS
As to the kind of experiment: biochemical.

In data set [2] the target is T2, ABCG2 (Homo sapiens, UniProt Q9UNQ0, R482T).
T2 sequence (Q9UNQ0 1-655 R482T): T1 sequence (Q9UNQ0 1-655) with R482T
As to the kind of experiment: tritium-labeled mitoxantrone accumulation in transfected cells.

Positions count from the first letter of the chain named.

Take `Cc1cc(O)c(-c2ccc([C@@H](C)CN(C)C)cc2)c2c1[nH]c(=O)c1sccc12` [OTS964]: the EC50 at ABCG2 [1] was determined as 140 nM.
For `O=C1c2c(O)ccc(O)c2C(=O)c2c(NCCNCCO)ccc(NCCNCCO)c21` [mitoxantrone], the “tritium-labeled mitoxantrone accumulation in transfected cells” value at ABCG2 [2] was “ABCG2-mediated efflux of mitoxantrone, which is an established substrate of ABCG2, in R482T-mutant-ABCG2-overexpressing cell line”.

Usually EC50 stands for the midpoint of the concentration-response curve. Low values mean an effect from little substance, high ones a need for much substance.

Values taken from PMC7917255 (Frontiers in Pharmacology, 2021).
